{"source": "patent US11603515B2", "about": "“Cell culture substrate, cancer cell aggregate and method for manufacturing same using said substrate, and drug screening method using said cancer cell aggregate” (NATIONAL UNIVERSITY CORPORATION HOKKAIDO UNIVERSITY, priority 2017, dated 2023)", "test_system": "microtumor consisting of PCI-55 cells", "test": "Evaluation of anticancer agent using microtumors (morphological change and molecular expression)", "assay_type": "cell-based, human", "protocol": "A total of six types of cell culture substrates with Roughness (+) or Roughness (−) of 30, 95, or 300 μm in spot diameter were used to culture human pancreatic ductal adenocarcinoma cell line PCI-55. Immediately before culturing the cells, each of the cell culture substrates was immersed in distilled water for about 30 minutes to detach the polyparaxylene layer. Then, the cell culture substrate was washed using water, sterilized with 70% ethanol, and air dried. The cell culture substrate was then fixed to the inner bottom of a culture dish (Asnol petri dish, AS ONE) with 40 mm in diameter and 13.5 mm in depth via Vaseline. After adding DMEM and washing the cell culture substrate for three times, 3×10^6 of PCI-55 cells suspended in 3 mL of DMEM were seeded on each cell culture substrate, and cultured at 37 degrees Celsius overnight to for 48 hours.\nMorphological change in microtumors was observed, by adding nocodazole known as an anticancer agent with microtubule polymerization inhibitory activity to a culture medium of the microtumor consisting of PCI-55 cells formed on the cell culture substrate 1 in Example 2 so that the final concentration becomes 1 μM.", "key": {"[1]": {"conditions": "nocodazole 1 μM, 24 hours after treatment, fluorescence images (FIG. 49)"}}}
{"smiles": "COC(=O)Nc1nc2ccc(C(=O)c3cccs3)cc2[nH]1", "note": "[nocodazole]", "values": [{"measurement": "Cell-in-cell structure of the microtumor", "setting": "[1]", "value": "destructed"}, {"measurement": "Membranous expression of α-tubulin in the microtumor", "setting": "[1]", "value": "disappeared"}, {"measurement": "Release of cells from the inner microtumor", "setting": "[1]", "value": "a number of viable cells were scattered so as to overflow from the inner microtumor"}, {"measurement": "Adhesion of microtumor to the spot on the cell culture substrate / morphology", "setting": "nocodazole final concentration 1 μM, PCI-55 microtumor on cell culture substrate 1, time-lapse DIC (FIG. 48)", "value": "prevented from adhering to the spot on the cell culture substrate, and formed spheroidal morphology"}, {"measurement": "Accumulation of Annexin V on the surface of microtumor (dead cell phenotype)", "setting": "nocodazole treatment, Annexin V and EthD time-lapse images (FIG. 50)", "value": "reduced the accumulation of Annexin V on the surface of microtumor"}]}
